Measured values reported in PubChem BioAssay AID1963430 (Molecular Pharmacology Branch, DTP, NCI, 2024).

System: 521955-158-R2-J5-PDC complex spheroid growth, % test/control
Assay: Anticancer human tumor 521955-158-R2-J5-PDC patient-derived pancreatic carcinoma cell line growth inhibition [Asc]
Conditions: for IC50: curve of first compound; for viability, T/C: stronger effect = lower value
In short: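 Concentration series start at each agent's clinical Cmax, or at 10 microM when none is established, and drop in half-log steps; agents are applied alone or together to complex spheroids built with HUVEC and hMSC.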

[1] = second compound 0.1 µM, first compound 0.00316 µM
[2] = second compound 0.1 µM, first compound 0.01 µM
[3] = second compound 0.1 µM, first compound 0.0316 µM
[4] = second compound 0.1 µM, first compound 0.1 µM
[5] = second compound 0.1 µM, first compound 0.316 µM
[6] = second compound 0.1 µM, first compound 1 µM
[7] = second compound 0.316 µM, first compound 0.00316 µM
[8] = second compound 0.316 µM, first compound 0.01 µM
[9] = second compound 0.316 µM, first compound 0.0316 µM
[10] = second compound 0.316 µM, first compound 0.1 µM
[11] = second compound 0.316 µM, first compound 0.316 µM
[12] = second compound 0.316 µM, first compound 1 µM
[13] = second compound 1 µM, first compound 0.00316 µM
[14] = second compound 1 µM, first compound 0.01 µM
[15] = second compound 1 µM, first compound 0.0316 µM
[16] = second compound 1 µM, first compound 0.1 µM
[17] = second compound 1 µM, first compound 0.316 µM
[18] = second compound 1 µM, first compound 1 µM
[19] = second compound 3.16 µM, first compound 0.00316 µM
[20] = second compound 3.16 µM, first compound 0.01 µM
[21] = second compound 3.16 µM, first compound 0.0316 µM
[22] = second compound 3.16 µM, first compound 0.1 µM
[23] = second compound 3.16 µM, first compound 0.316 µM
[24] = second compound 3.16 µM, first compound 1 µM
[25] = second compound 10 µM, first compound 0.00316 µM
[26] = second compound 10 µM, first compound 0.01 µM
[27] = second compound 10 µM, first compound 0.0316 µM
[28] = second compound 10 µM, first compound 0.1 µM
[29] = second compound 10 µM, first compound 0.316 µM
[30] = second compound 10 µM, first compound 1 µM
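Note: spheroids exposed to agents for 7 days before readout.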
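Throughout, for viability, T/C: 100% = DMSO vehicle control viability.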

CCN1CCN(Cc2ccc(Nc3ncc(F)c(-c4cc(F)c5nc(C)n(C(C)C)c5c4)n3)nc2)CC1 + Cc1c(S(C)(=O)=O)c(-c2cc(F)cc(N3CCN(c4ccc(NS(=O)(=O)c5ccc(NC(CCN6CCC(C(=O)OCCCP(=O)(O)O)CC6)CSc6ccccc6)c(S(=O)(=O)C(F)(F)F)c5)cc4)CC3)c2)c(-c2ccc(Cl)cc2)n1C(C)C
IC50 (second compound 0.1 µM): 3.16 nM | IC50 (second compound 0.316 µM): 3.16 nM | IC50 (second compound 1 µM): > 1000 nM | IC50 (second compound 3.16 µM): > 1000 nM | IC50 (second compound 10 µM): > 1000 nM | viability, T/C [1]: 86.2% | viability, T/C [2]: 34.5% | viability, T/C [3]: 42.2% | viability, T/C [4]: 48.3% | viability, T/C [5]: 73% | viability, T/C [6]: 87.6% | viability, T/C [7]: 69% | viability, T/C [8]: 61% | viability, T/C [9]: 41.4% | viability, T/C [10]: 46.5% | viability, T/C [11]: 77.7% | viability, T/C [12]: 92.8% | viability, T/C [13]: 77.5% | viability, T/C [14]: 56.5% | viability, T/C [15]: 59.6% | viability, T/C [16]: 50.7% | viability, T/C [17]: 65.6% | viability, T/C [18]: 114% | viability, T/C [19]: 58% | viability, T/C [20]: 50.1% | viability, T/C [21]: 43.8% | viability, T/C [22]: 61.4% | viability, T/C [23]: 74.3% | viability, T/C [24]: 88.4% | viability, T/C [25]: 171% | viability, T/C [26]: 111% | viability, T/C [27]: 120% | viability, T/C [28]: 179% | viability, T/C [29]: 162% | viability, T/C [30]: 142%

Cn1ncnc1[C@H]1c2n[nH]c(=O)c3cc(F)cc(c23)N[C@@H]1c1ccc(F)cc1 + Cc1c(S(C)(=O)=O)c(-c2cc(F)cc(N3CCN(c4ccc(NS(=O)(=O)c5ccc(NC(CCN6CCC(C(=O)OCCCP(=O)(O)O)CC6)CSc6ccccc6)c(S(=O)(=O)C(F)(F)F)c5)cc4)CC3)c2)c(-c2ccc(Cl)cc2)n1C(C)C
IC50 (second compound 0.1 µM): > 100 nM | IC50 (second compound 0.316 µM): > 100 nM | IC50 (second compound 1 µM): 53.1 nM | IC50 (second compound 3.16 µM): 29 nM | IC50 (second compound 10 µM): > 100 nM | viability, T/C (second compound 0.1 µM, first compound 0.000316 µM): 93.4% | viability, T/C (second compound 0.1 µM, first compound 0.001 µM): 80.7% | viability, T/C [1]: 61.1% | viability, T/C [2]: 67.2% | viability, T/C [3]: 53.3% | viability, T/C [4]: 53.1% | viability, T/C (second compound 0.316 µM, first compound 0.000316 µM): 99.6% | viability, T/C (second compound 0.316 µM, first compound 0.001 µM): 84.3% | viability, T/C [7]: 74.6% | viability, T/C [8]: 81.4% | viability, T/C [9]: 65.1% | viability, T/C [10]: 68.8% | viability, T/C (second compound 1 µM, first compound 0.000316 µM): 151% | viability, T/C (second compound 1 µM, first compound 0.001 µM): 85% | viability, T/C [13]: 102% | viability, T/C [14]: 55.1% | viability, T/C [15]: 54.8% | viability, T/C [16]: 56.5% | viability, T/C (second compound 3.16 µM, first compound 0.000316 µM): 78.3% | viability, T/C (second compound 3.16 µM, first compound 0.001 µM): 105% | viability, T/C [19]: 82.3% | viability, T/C [20]: 70.6% | viability, T/C [21]: 39.8% | viability, T/C [22]: 56.8% | viability, T/C (second compound 10 µM, first compound 0.000316 µM): 241% | viability, T/C (second compound 10 µM, first compound 0.001 µM): 216% | viability, T/C [25]: 201% | viability, T/C [26]: 173% | viability, T/C [27]: 236% | viability, T/C [28]: 164%

O=C(c1cc(Cc2n[nH]c(=O)c3ccccc23)ccc1F)N1CCN(C(=O)C2CC2)CC1 + Cc1c(S(C)(=O)=O)c(-c2cc(F)cc(N3CCN(c4ccc(NS(=O)(=O)c5ccc(NC(CCN6CCC(C(=O)OCCCP(=O)(O)O)CC6)CSc6ccccc6)c(S(=O)(=O)C(F)(F)F)c5)cc4)CC3)c2)c(-c2ccc(Cl)cc2)n1C(C)C
IC50 (second compound 0.1 µM): 5690 nM | IC50 (second compound 0.316 µM): > 10000 nM | IC50 (second compound 1 µM): 835 nM | IC50 (second compound 3.16 µM): > 10000 nM | IC50 (second compound 10 µM): > 10000 nM | viability, T/C [3]: 74.6% | viability, T/C [4]: 73.8% | viability, T/C [5]: 66.1% | viability, T/C [6]: 68.3% | viability, T/C (second compound 0.1 µM, first compound 3.16 µM): 59% | viability, T/C (second compound 0.1 µM, first compound 10 µM): 41.4% | viability, T/C [9]: 51.4% | viability, T/C [10]: 55.3% | viability, T/C [11]: 61.4% | viability, T/C [12]: 68.4% | viability, T/C (second compound 0.316 µM, first compound 3.16 µM): 70.1% | viability, T/C (second compound 0.316 µM, first compound 10 µM): 63.2% | viability, T/C [15]: 68.5% | viability, T/C [16]: 88.3% | viability, T/C [17]: 63.4% | viability, T/C [18]: 45.6% | viability, T/C (second compound 1 µM, first compound 3.16 µM): 52.6% | viability, T/C (second compound 1 µM, first compound 10 µM): 44.4% | viability, T/C [21]: 71.5% | viability, T/C [22]: 50.3% | viability, T/C [23]: 95.8% | viability, T/C [24]: 70.2% | viability, T/C (second compound 3.16 µM, first compound 3.16 µM): 72.9% | viability, T/C (second compound 3.16 µM, first compound 10 µM): 49.8% | viability, T/C [27]: 103% | viability, T/C [28]: 172% | viability, T/C [29]: 117% | viability, T/C [30]: 139% | viability, T/C (second compound 10 µM, first compound 3.16 µM): 102% | viability, T/C (second compound 10 µM, first compound 10 µM): 99.9%

O=C(c1ccc(F)c(F)c1Nc1ccc(I)cc1F)N1CC(O)([C@@H]2CCCCN2)C1 + Cc1c(S(C)(=O)=O)c(-c2cc(F)cc(N3CCN(c4ccc(NS(=O)(=O)c5ccc(NC(CCN6CCC(C(=O)OCCCP(=O)(O)O)CC6)CSc6ccccc6)c(S(=O)(=O)C(F)(F)F)c5)cc4)CC3)c2)c(-c2ccc(Cl)cc2)n1C(C)C
IC50 (second compound 0.1 µM): 103 nM | IC50 (second compound 0.316 µM): 21.3 nM | IC50 (second compound 1 µM): 32.2 nM | IC50 (second compound 3.16 µM): 39.9 nM | IC50 (second compound 10 µM): 78.8 nM | viability, T/C [1]: 64% | viability, T/C [2]: 60.4% | viability, T/C [3]: 69.8% | viability, T/C [4]: 45.5% | viability, T/C [5]: 34.5% | viability, T/C [6]: 19.9% | viability, T/C [7]: 66.9% | viability, T/C [8]: 44.6% | viability, T/C [9]: 56.5% | viability, T/C [10]: 37.8% | viability, T/C [11]: 23.2% | viability, T/C [12]: 13% | viability, T/C [13]: 82% | viability, T/C [14]: 64.6% | viability, T/C [15]: 49.1% | viability, T/C [16]: 37.6% | viability, T/C [17]: 18.1% | viability, T/C [18]: 5.29% | viability, T/C [19]: 61.2% | viability, T/C [20]: 75.1% | viability, T/C [21]: 50.8% | viability, T/C [22]: 31.6% | viability, T/C [23]: 9.65% | viability, T/C [24]: 5.32% | viability, T/C [25]: 169% | viability, T/C [26]: 242% | viability, T/C [27]: 135% | viability, T/C [28]: 36.1% | viability, T/C [29]: 10.6% | viability, T/C [30]: 2.76%
